From patent US12478595B1, “Organoselenium compound for treating cancer” (IMAM MOHAMMAD IBN SAUD ISLAMIC UNIVERSITY, priority 2024, dated 2025)

Assays:
Assay type in all cases: cell-based
A375 (melanoma cancer) = assay: growth inhibition of A375 cancer cell line; conditions: Homo sapiens, A-375, read-out: growth inhibition percentage
[1] = tested on: HCT116 (colorectal carcinoma); assay: growth inhibition of HCT116 cancer cell line; conditions: Homo sapiens, HCT-116, read-out: growth inhibition percentage
[2] = tested on: HN9 (human squamous cell carcinoma of the oral tongue); assay: growth inhibition of HN9 cancer cell line; conditions: read-out: growth inhibition percentage
[3] = tested on: A549 (non-small cell lung cancer); assay: growth inhibition of A549 cancer cell line; conditions: Homo sapiens, A549, read-out: growth inhibition percentage
[4] = tested on: normal oral epithelial cell line (OEC); assay: growth inhibition of OEC non-cancer cell line; conditions: read-out: growth inhibition percentage
[5] = tested on: HuH7 (hepatocellular carcinoma); assay: growth inhibition of HuH7 cancer cell line; conditions: Homo sapiens, Huh-7, read-out: growth inhibition percentage
[6] = tested on: HEPG2 (hepatocellular carcinoma); assay: growth inhibition of HEPG2 cancer cell line; conditions: Homo sapiens, HepG2, read-out: growth inhibition percentage

C[Se]c1ccc(NC(=O)NCC2(C)CC(NC(=O)Nc3ccc([Se]C)cc3)CC(C)(C)C2)cc1 (stereo not shown) [HB188, 1-(4-(methylselanyl)phenyl)-3-((1,3,3-trimethyl-5-(3-(4-(methylselanyl)phenyl)ureido)cyclohexyl)methyl)urea]
inhibition at 100 µg/mL (A375 (melanoma cancer)): 66.8%
inhibition at 100 µg/mL [1]: 85.3%
inhibition at 100 µg/mL [2]: 74%
inhibition at 100 µg/mL [3]: 74.4%
inhibition at 100 µg/mL [4]: 32.7%
inhibition at 100 µg/mL [5]: 88.6%
inhibition at 100 µg/mL [6]: 76.2%
